{"source": "patent US7189351B2", "about": "“D-tagatose as an anti-biofilm agent” (priority 2001, dated 2007)", "key": {"[1]": {"tested_on": "Actinomyces naeslundii PK29/Streptococcus mitis J22", "experiment": "reversal of coaggregation, visual score", "type": "cell-based", "design": "key to reversal of coaggregation: *: Coaggregations were reversed by both D-galactose and D-tagatose", "settings": "for reversal of coaggregation: pair J22/PK29, coaggregation score 4 without sugar; for coaggregation score: pair PK29/J22, water score 4, scale 0 no visible to 4 maximum coaggregation", "description": "(§1) Fifteen oral isolates, including both early colonizers (Streptococcus and Actinomyces) and late colonizers (Fusobacterium, Porphyromonas, Prevotella, Veillonella, Capnocytophaga, and Actinobacillus), were tested for their ability to coaggregate with each other, followed by testing for the reversal of coaggregation by the addition of D-tagatose. Bacterial strains used were of human gingival crevice origin. The coaggregation was examined visually by a scoring system ranging from 0 for no visible coaggregation to 4 for maximum coaggregation [Cisar J. O., Kolenbrander P. E., and McIntire F. C., “Specificity of coaggregation reactions between human oral streptococci and strains of Actinomyces viscosus or Actinomyces naeslundii”, Infect. Immun., 24:742–752. 1979]. D-Tagatose, at a concentration of less than 750 mM, completely reversed the coaggregation of 17 (60%) of 28 strong coaggregating pairs (with a coaggregation score of 2 or higher) tested. […] These D-tagatose sensitive coaggregations were D-galactose reversible as well.\n(§2) Pairs of various species of oral bacteria were tested for coaggregation, and for reversal of coaggregation when D-tagatose or D-galactose was administered."}, "[2]": {"tested_on": "Actinomyces naeslundii PK29/Streptococcus morbillorum PK509", "experiment": "reversal of coaggregation, visual score", "type": "cell-based", "design": "key to reversal of coaggregation: *: Coaggregations were reversed by both D-galactose and D-tagatose", "settings": "for coaggregation score: pair PK29/PK509, water score 2, scale 0 no visible to 4 maximum coaggregation; for reversal of coaggregation: pair PK509/PK29, coaggregation score 2 without sugar", "description": "as §1, §2"}, "[3]": {"tested_on": "Actinomyces naeslundii PK947/Streptococcus oralis SO34", "experiment": "reversal of coaggregation, visual score", "type": "cell-based", "design": "key to reversal of coaggregation: *: Coaggregations were reversed by both D-galactose and D-tagatose", "settings": "for coaggregation score: pair PK947/SO34, water score 3, scale 0 no visible to 4 maximum coaggregation; for reversal of coaggregation: pair SO34/PK947, coaggregation score 3 without sugar", "description": "as §1, §2"}, "oral bacteria": {"tested_on": "oral bacteria", "settings": "known from literature; cited from earlier work"}, "dental plaque": {"tested_on": "dental plaque", "experiment": "D-tagatose in foods to control dental plaque (Example 3)", "type": "in vivo, human", "settings": "third monthly check-up", "from_the_text": "Forty subjects, half male, half female, ranging from 4 to 80 years in age, daily consume foodstuffs, such as cakes, cookies, pies, hard candy, hot and cold cereals, cold fruit drinks, iced tea, coffee and tea, that are sweetened with conventional sweeteners including sucrose and high fructose corn syrup (HFCS). After several monthly check-ups, these subjects are found to have high dental plaque indices, and many of them are diagnosed with plaque-related oral diseases. At this point, the test foodstuffs are switched such that D-tagatose is used as a one-for-one replacement for the table sugar and HFCS previously used. No other changes are made in the test regimen."}, "[4]": {"tested_on": "staphylococcus lesion of the leg", "experiment": "D-tagatose enhancing antibiotic activity (Example 4)", "type": "in vivo, human", "settings": "one patient; five grams with each of three meals daily plus oral penicillin; in the course of a week", "from_the_text": "A patient with a staphylococcus lesion of the leg is placed on oral penicillin by their physician. […] The formation of plaque in the infected region protects the interior microorganisms from the antibiotic coursing through the bloodstream, and the plaque organisms develop increased resistance. The physician prescribes five grams of D-tagatose be taken with each of three meals daily, along with continued taking of the penicillin."}, "[5]": {"tested_on": "biofilm on the heart valve", "experiment": "prophylaxis against prosthetic valve endocarditis (Example 5)", "type": "in vivo, human", "settings": "one patient; 10 grams with each of three daily meals, three days before until one week after surgery", "from_the_text": "An adult patient requires removal of their infected mitral valve and its replacement with a prosthetic valve. One of the principal hazards of such an operation is that the valve region of the heart will become infected, frequently with streptococci that form a biofilm protecting internal microorganisms from antibiotics, and also permitting such organisms to develop increasing resistance. In order to prevent the buildup of a biofilm infection, the physician places their patient on tagatose treatment for three days prior to the surgery. On each such day, the patient consumes 10 grams of D-tagatose with each of their three daily meals. The resulting D-tagatose blood level is sufficient to preclude the formation of a biofilm on the heart valve. The treatment is continued until one week after the operation and the patient is well on the road to recovery."}, "[6]": {"experiment": "prevention of stroke (Example 6)", "type": "in vivo, human", "settings": "one patient with high blood pressure; 5 grams with each of three daily meals", "from_the_text": "A patient has gradually developed high blood pressure over the years. Their doctor places them on a blood pressure medicine when their pressure reaches 135/90 mm Hg. Despite gradual increases in dosage of the medicine, and trials of new medicines, over time their blood pressure continues to increase until reaching 145/100 mm Hg. At this point the physician fears the possibility of a stroke."}, "[7]": {"tested_on": "total bacteria and coliform", "experiment": "sterilization of food-handling machinery, wash before Clean-In-Place (Example 7)", "settings": "200 mM in sterile water run through equipment immediately prior to CIP", "description": "A cheese-making plant processes raw milk into cheese. The equipment includes many tubes, tubules, pipes and other surfaces that come in direct contact with the milk. Between runs, standard “Clean-In-Place” (CIP) operations are performed in which acid and oxidants are coursed through the equipment to contact all surfaces and are then washed out with sterile water. However, the formation of microbial plaques protects the microorganisms in the interiors of the plaques, and some survive the CIP. To overcome this problem, an initial step is added to the CIP whereby a stream of 200 mM D-tagatose in sterile water is run through the equipment, contacting all surfaces, immediately prior to instituting the CIP. […] Accordingly, the D-tagatose wash is made part of the CIP."}}}
{"smiles": "O=C[C@H](O)[C@@H](O)[C@@H](O)[C@H](O)CO", "note": "[D-Galactose]", "values": [{"measurement": "reversal of coaggregation", "setting": "[1]", "value": "4*"}, {"measurement": "coaggregation score", "setting": "[1]; sugar 143 mM", "value": 1}, {"measurement": "coaggregation score", "setting": "[2]; sugar 143 mM", "value": 0}, {"measurement": "reversal of coaggregation", "setting": "[2]", "value": "2*"}, {"measurement": "coaggregation score", "setting": "[3]; sugar 143 mM", "value": 0}, {"measurement": "reversal of coaggregation", "setting": "[3]", "value": "3*"}, {"measurement": "reversal of coaggregations that would otherwise form dental plaque", "setting": "oral bacteria", "value": "reverse the coaggregations of oral bacteria"}]}
{"smiles": "O=C(CO)[C@@H](O)[C@@H](O)[C@H](O)CO", "note": "[D-Tagatose]", "values": [{"measurement": "reversal of coaggregation", "setting": "[1]", "value": "4*"}, {"measurement": "coaggregation score", "setting": "[1]; sugar 750 mM", "value": 1}, {"measurement": "coaggregation score", "setting": "[2]; sugar 200 mM", "value": 0}, {"measurement": "reversal of coaggregation", "setting": "[2]", "value": "2*"}, {"measurement": "coaggregation score", "setting": "[3]; sugar 200 mM", "value": 0}, {"measurement": "reversal of coaggregation", "setting": "[3]", "value": "3*"}, {"measurement": "plaque indices", "setting": "dental plaque; forty subjects, D-tagatose one-for-one replacement for table sugar and HFCS in foodstuffs", "value": "significantly lowered"}, {"measurement": "plaque-related oral diseases", "setting": "dental plaque; subjects who formerly exhibited disease", "value": "complete or nearly complete recovery"}, {"measurement": "outcome of staphylococcus lesion", "setting": "[4]", "value": "the lesion disappears"}, {"measurement": "infection after prosthetic valve replacement", "setting": "[5]", "value": "Infection has been avoided"}, {"measurement": "risk of stroke", "setting": "[6]", "value": "significantly reduced"}, {"measurement": "total bacteria and coliform counts in cheese-making equipment", "setting": "[7]", "value": "reducing the total bacteria and the coliform counts to acceptable regulatory levels"}]}
